The numbers were not newly measured in patent US10035822B2, “Cell-reactive, long-acting, or targeted compstatin analogs and related compositions and methods” (APELLIS PHARMACEUTICALS, INC., priority 2012, dated 2018), which cites them from elsewhere.

Non-standard residues stand in square brackets, D forms with d. Trp(6-F) = N[C@@H](Cc1c[nH]c2cc(F)ccc12)C(=O)O; Bpa = N[C@@H](Cc1ccc(C(=O)c2ccccc2)cc1)C(=O)O; 1Nal = N[C@@H](Cc1cccc2ccccc12)C(=O)O; 2Nal = N[C@@H](Cc1ccc2ccccc2c1)C(=O)O

This data set relates to complement activation. The conditions noted are these: relative to compstatin amidated at the C-terminus; published data (WO2004/026328, WO2007044668, Mallik 2005, Katragadda 2006); cited from earlier work.
For “Ac-ICV(1-Nal)QDWGAHRCT-COOH (Ac-ICV[1Nal]QDWGAHRCT-OH; cysteine pairing not given here) [Ac V4(1-Nal)/H9A-OH]”, the Activity over compstatin is 30× more.
For “Ac-ICV(2-IgI)QDWGAHRCT-CONH2 (Ac-ICV[2‑Igl]QDWGAHRCT-NH2; cysteine pairing not given here) [Ac-V42IgI/H9A]”, the Activity over compstatin is 39× more.
Regarding “Ac-ICV(2-IgI)QDWGAHRCT-COOH (Ac-ICV[2‑Igl]QDWGAHRCT-OH; cysteine pairing not given here) [Ac-V42IgI/H9A-OH]”, the Activity over compstatin is given as 37× more.
Turning to “Ac-ICV(2-Nal)QDWGAHRCT-CONH2 (Ac-ICV[2Nal]QDWGAHRCT-NH2; cysteine pairing not given here) [Ac-V4(2-Nal)/H9A]”, the Activity over compstatin is 99× more.
With “Ac-ICV(2-Nal)QDWGAHRCT-COOH (Ac-ICV[2Nal]QDWGAHRCT-OH; cysteine pairing not given here) [Ac V4(2-Nal)/H9A-OH]”, the Activity over compstatin is on record as 38× more.
Take “Ac-ICV(5-methyl-W)QDWGAHRCT-CONH2 [Ac-V4(5-MeW)/H9A]”: the Activity over compstatin is on record as 67× more.
As to “Ac-ICV(5fW)QDWGAHRCT-CONH2 [Ac-V4(5fW)/H9A]”, the Activity over compstatin was 31× more.
“Ac-ICV(Bpa)QDWGAHRCT-CONH2 (Ac-ICV[Bpa]QDWGAHRCT-NH2; cysteine pairing not given here) [Ac-V4(Bpa)/H9A]”: the Activity over compstatin is listed as 86× more.
Consider “Ac-ICV(Bpa)QDWGAHRCT-COOH (Ac-ICV[Bpa]QDWGAHRCT-OH; cysteine pairing not given here) [Ac-V4(Bpa)/H9A-OH]”, for which the Activity over compstatin is on record as 49× more.
For the substance “Ac-ICVDhtQDWGAHRCT-COOH [Ac-V4Dht/H9A-OH]”, the Activity over compstatin is 5× more.
Consider Ac-ICVVQDWGHHRCT-CONH2 [Ac-compstatin], for which the Activity over compstatin is 3× more.
Turning to “Ac-ICVWQD(5fW)GAHRCT-CONH2 [Ac-V4W/W7(5fW)/H9A]”, the Activity over compstatin is reported as 121× more.
Consider Ac-ICVWQDWGAHRCT-CONH2 [Ac-V4W/H9A], for which the Activity over compstatin is 45× more.
For the substance “Ac-ICVWQDWGAHRCdT-COOH [Ac-V4W/H9A/T13dT-OH]”, the Activity over compstatin is 55× more.
With Ac-ICVYQDWGAHRCT-CONH2 [Ac-V4Y/H9A], the Activity over compstatin is on record as 14× more.
As for “H-GICV(6fW)QD(6fW)GAHRCTN-COOH (H-GICV[Trp(6-F)]QD[Trp(6-F)]GAHRCTN-OH; cysteine pairing not given here) [+G/V4(6fW)/W7(6fW)H9A + N-OH]”, the Activity over compstatin is on record as 126× more.
